# How the values were obtained:
# Assay type in all cases: cell-based
# [1] = test system: H1 human embryonic stem cells; assay: Primary screening: definitive endoderm differentiation in the absence of activin A, cell number and SOX17 (Example 3); conditions: 2.5 μM compound, 20 ng/ml Wnt3a days 1-2, no activin A, four-day assay
# Description: (§1) Briefly, clusters of H1 human embryonic stem cells were grown on reduced growth factor […]™ (Invitrogen; Cat #1356231)-coated tissue culture plastic. Cells were passaged using collagenase (Invitrogen; Cat #17104-019) treatment and gentle scraping, washed to remove residual enzyme, and plated with even dispersal at a ratio of 1:1 (surface area) on reduced growth factor […]™-coated 96-well black plates (Packard ViewPlates; PerkinElmer; Cat #6005182) using volumes of 100 μl/well. Cells were allowed to attach as clusters and then recover log phase growth over a 1 to 3 day period, feeding daily with MEF conditioned medium supplemented with 8 ng/ml bFGF (R&D Systems; Cat #233-FB). Plates were maintained at 37° C., 5% CO2 in a humidified box throughout the duration of assay.
# The compounds tested were made available as 5 mM stocks in 96-well plate format, solubilized in 100% DMSO (Sigma; Cat #D2650) and stored at −80° C. The library compounds were further diluted to an intermediate concentration of 0.2 mM in 50 mM HEPES (Invitrogen; Cat #15630-080), 20% DMSO and stored at 4° C. Test conditions were performed in triplicate, feeding on alternate days over a four-day assay period. Primary screening assays were initiated by aspirating culture medium from each well followed by three washes in PBS (Invitrogen; Cat #14190) to remove residual growth factors and serum. On the first day of assay, test volumes of 200 μl per well were added back containing DMEM:F12 base medium (Invitrogen; Cat #11330-032) supplemented with 0.5% FCS (HyClone; Cat #SH30070.03) and 20 ng/ml Wnt3a (R&D Systems; Cat #1324-WN) plus 2.5 μM test compound. On the third day of assay, test volumes of 200 μl per well were added back containing DMEM:F12 base medium supplemented with 2% FCS plus 2.5 μM test compound, without Wnt3a. Positive control samples contained the same base medium supplemented with FCS, substituting 100 ng/ml recombinant human activin A (PeproTech; Cat #120-14) for the test compound throughout the four-day assay along with Wnt3a (20 ng/ml) added only on days 1 and 2. Negative control samples contained DMEM:F12 base medium supplemented with FCS, adding Wnt3a on days 1 and 2 but omitting activin A.
# (§2) At the conclusion of four-days of culture, assay plates were washed twice with PBS (Invitrogen; Cat #14190), fixed with 4% paraformaldehyde (Alexis Biochemical; Cat #ALX-350-011) at room temperature for 20 minutes, then washed three times with PBS and permeabilized with 0.5% Triton X-100 (Sigma; Cat #T8760-2) for 20 minutes at room temperature. Cells were washed again three times with PBS and blocked with 4% chicken serum (Invitrogen; Cat #16110082) in PBS for 30 minutes at room temperature. Primary antibody (goat anti-human SOX17; R&D Systems; Cat #AF1924) was diluted 1:100 in 4% chicken serum and added to each well for one hour at room temperature. Alexa Fluor 488 conjugated secondary antibody (chicken anti-goat IgG; Molecular Probes; Cat #AZ1467) was diluted 1:200 in PBS and added to each sample well after washing three times with PBS. To counter stain nuclei, 4 μg/ml Hoechst 33342 (Invitrogen; Cat #H3570) was added for ten minutes at room temperature. Plates were washed once with PBS and left in 100 μl/well PBS for imaging.
# (§3) Imaging was performed using an IN Cell Analyzer 1000 (GE Healthcare) utilizing the 51008bs dichroic for cells stained with Hoechst 33342 and Alexa Fluor 488. Exposure times were optimized from positive control wells and from untreated negative control wells stained with secondary antibody alone. Images from 15 fields per well were acquired to compensate for any cell loss during the bioassay and subsequent staining procedures. Measurements for total cell number and total SOX17 intensity were obtained from each well using IN Cell Developer Toolbox 1.7 (GE Healthcare) software. Segmentation for the nuclei was determined based on gray-scale levels (baseline range 100-300) and nuclear size. […]
# [2] = test system: H1 human embryonic stem cells; assay: Secondary assay: compound combined with individual growth factors or small molecules, no activin A (Example 5, Table 4); conditions: growth factor 50 ng/ml combined with 2.5 μM compound and Wnt3a, no activin A
# Description: as §1, with “Clusters of H1” for “Briefly, clusters of H1”, “(Invitrogen; Cat #356231)-coated tissue culture” for “(Invitrogen; Cat #1356231)-coated tissue culture”, “(Invitrogen; Cat #Cat #17104-019) treatment” for “(Invitrogen; Cat #17104-019) treatment”
# Other agents tested were purchased as follows: BMP-7 (Sigma; Cat #B1434), LY294002 (Cayman; Cat 70920), PD98059, U0126, U0124 (EMD Biosciences; Cat #453710), muscimol (Tocris; Cat #0289), biuculline (Tocris; Cat #0130), sodium butyrate (Sigma; Cat #B5887). All growth factors were solubilized in PBS with 0.1% BSA (Sigma; Cat #A7888) and stored frozen at −80° C. Small molecules were solubilized in 100% DMSO (Sigma; Cat #D2650) and stored frozen at −80° C. The compounds were available as 5 mM stocks in 96-well plate format, solubilized in 100% DMSO and stored at −80° C. The compounds of the present invention were further diluted to an intermediate concentration of 0.2 mM in 50 mM HEPES (Invitrogen; Cat #15630-080), 20% DMSO and stored at 4° C. All growth factors and inhibitors were prepared in a deep well, 96-well polypropylene plate, diluted to 5× intermediate stocks in DMEM:F12 base medium at the beginning of assay and stored at 4° C.
# A secondary screening assay was conducted, testing in triplicate and feeding on alternate days over the four-day assay timeframe. Assays were initiated by aspirating culture medium from each well followed by three washes in PBS to remove residual growth factors and serum. Test volumes of 80 μl per well were added back containing DMEM:F12 base medium (Invitrogen; Cat #11330-032) supplemented with 0.625% FCS (HyClone; Cat #SH30070.03), 25 ng/ml Wnt3a (R&D Systems), and 3.125 μM compound plus 20 μl 5× stock of growth factor or small molecule to yield a final concentration of 0.5% FCS, 20 ng/ml Wnt3a, and 2.5 μM compound. […] Final assay concentrations of small molecules tested were as follows: muscimol (20 μM), PD98059 (1 μM), LY294002 (2.5 μM), 00124 (1 μM), U0126 (1 μM), sodium butyrate (0.5 mM). Positive control wells (100 μl/well) contained the same base medium supplemented with 0.5% FCS, 20 ng/ml Wnt3a and 100 ng/ml activin A. Negative control wells (100 μl/well) contained the same base medium with 0.5% FCS and 20 ng/ml Wnt3a, omitting activin A.
# On day 3, wells were aspirated and fed with 80 μl DMEM:F12 base medium supplemented with 2.5% FCS (HyClone) and 3.125 μM cyclic aniline-pyridinotriazine compound plus 20 μl 5× stock of growth factors or small molecules per well to yield a final concentration of 2% FCS and 2.5 μM compound (omitting Wnt3a) and as denoted on day one for all remaining growth factors or small molecules. Positive control wells (100 μl/well) contained the same base medium supplemented with 2% FCS and 100 ng/ml activin A, omitting Wnt3a. Negative control wells (100 μl/well) contained the same base medium with 2% FCS, omitting both activin A and Wnt3a.
# At the conclusion of four-days of culture, assay plates were washed twice with PBS, fixed with 4% paraformaldehyde (Alexis Biochemical; Cat #ALX-350-011) at room temperature for 20 minutes, then washed three times with PBS and permeabilized with 0.5% Triton X-100 (Sigma; Cat #T8760-2) for 20 minutes at room temperature. Cells were washed again three times with PBS and blocked with 4% chicken serum (Invitrogen; Cat #16110082) in PBS for 30 minutes at room temperature.
# [3] = test system: H1 human embryonic stem cells; assay: Single-cell monolayer assay with EGF/FGF4, serum free, no activin A (Example 10, Table 10); conditions: No AA (with Wnt3a), FGF none
# Description: Briefly, clusters of H1 human embryonic stem cells were grown on reduced growth factor […]™ (Invitrogen; Cat #356231)-coated tissue culture plastic. Cultures were treated with Accutase (Sigma; Cat #A6964), using equivalent volumes of […] surface area for 5 minutes at 37° C., then gently resuspended, pelleted by centrifugation, and resuspended in MEF conditioned medium for counting. For assay seeding, cells were plated at 50,000 cells/cm^2 on reduced growth factor […]™-coated 96-well black plates (Packard ViewPlates; Cat #6005182) using volumes of 100 μl/well. Cells were allowed to attach and recover log phase growth over a 3 to 5 day period, feeding daily with MEF conditioned medium supplemented with 8 ng/ml bFGF (R&D Systems; Cat #233-FB). Plates were maintained at 37° C., 5% CO2 in a humidified box throughout the duration of assay.
# Stocks of EGF and FGF4 were prepared in a 96-well polypropylene plate (Corning, Inc.; Cat #3960). Compound 22 was available as a 5 mM stock solubilized in 100% DMSO (Sigma; Cat #D2650) and stored at −80° C. Assays were initiated by aspirating culture medium from each well followed by three washes in PBS to remove residual growth factors and serum. […]
# On the second day of assay, wells were again aspirated and fed with 80 μl per well were added back containing RPMI 1640 base medium supplemented with 2.5% fatty acid free BSA, 10 ng/ml bFGF, and 3.125 μM Compound 22 plus 20 μl 5× stock of growth factors to yield a final concentration of 2% fatty acid free BSA, 8 ng/ml bFGF and 2.5 μM Compound 22 in assay. Positive control wells contained the same base medium supplemented with 2% fatty acid free BSA, 8 ng/ml bFGF and 100 ng/ml recombinant human activin A. Negative control samples contained the same base medium supplemented with 2% fatty acid free BSA and 8 ng/ml bFGF but omitted treatment with activin A.
# as §2, with “with PBS,” for “with PBS (Invitrogen; Cat #14190),”, “Systems; cat” for “Systems; Cat”, “To counterstain” for “To counter stain”
# as §3, with “size. Averages and standard deviations were calculated for each replicate data set. Total SOX17 protein expression was reported as total intensity or integrated intensity, defined as total fluorescence of the cell multiplied by the area of the cell. Background was eliminated based on acceptance criteria of gray-scale ranges between 200 to 3500.” for “size.”
Molecule,Cell Number: % of positive control [1],Sox17 Expression: % of positive control [1],Sox17 Expression: Average Total Intensity [1],Cell Number: Average Total Cell Number ([1]; positive control 100 ng/ml activin A + Wnt3a),increase in SOX17 expression (% of the activin A/Wnt3a control) [2],"Cell Number, % of positive control ([3]; EGF(50 ng/ml))","Cell Number, Average Total Cell Number ([3]; EGF(50 ng/ml))","Sox17 Expression, % of positive control ([3]; EGF(50 ng/ml))","Sox17 Expression, Average Total Intensity ([3]; EGF(50 ng/ml))","Cell Number, % of positive control ([3]; EGF(100 ng/ml))","Cell Number, Average Total Cell Number ([3]; EGF(100 ng/ml))","Sox17 Expression, % of positive control ([3]; EGF(100 ng/ml))","Sox17 Expression, Average Total Intensity ([3]; EGF(100 ng/ml))"
"CC(C)(C)OC(=O)NCCc1cccc(Nc2ncnc(-c3ccnc(C#CCO)c3)n2)c1 [Compound 3, 1,1-Dimethylethyl {2-[3-({4[2-(3-hydroxyprop-1-yn-1-yl)pyridin-4-yl]-1,3,5-triazin-2-yl}amino)phenyl]ethyl}carbamate]",133.82 % of positive control,−0.73 % of positive control,−2.34E+06,14211,,,,,,,,,
EGF: growth factor purchased from R&D Systems,,,,,34%,43.85%,5558,18.44%,5.01E+07,53.79%,6818,23.62%,6.42E+07

# Reference: US9593305B2, “Differentiation of pluripotent stem cells” (Janssen Biotech, Inc., priority 2008, dated 2017)
